In PubChem BioAssay AID1259411 (Chemical Carcinogenesis Research Information System (CCRIS), 2018) one finds carcinogen call data, which are given here for eight compounds.

Calls of active or inactive are those of the source. The rule behind the calls is not given here.

The subject of the series is rodent carcinogenicity bioassays, tumor incidence. Briefly: CCRIS carcinogenicity studies. In a few lines:
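Archive of carcinogenicity, mutagenicity, tumor promotion and tumor inhibition results drawn from journals, NCI reports and other sources, expert-reviewed; covers 1985-2011 and is no longer updated.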

In the case of `COc1ccc(N)c(C)c1`, the carcinogen call (Species: MOUSE, Strain/Sex: B6C3F1/FEMALE, Route: GAVAGE, Dose: 0, 0.06, 0.11 G/KG (FOR 53 WK), Dose: 0, 0.06, 0.11 G/KG (FOR 53 WK)) is “inactive; negative”; the carcinogen call (Species: RAT, Strain/Sex: F344/FEMALE, Route: GAVAGE, Dose: 0, 0.08, 0.16 G/KG, Dose: 0, 0.08, 0.16 G/KG, Tumor Site: Type of Lesion: URINARY BLADDER: TRANSITIONAL CELL CARCINOMA) was “active; positive”; the carcinogen call (Species: RAT, Strain/Sex: F344/MALE, Route: GAVAGE, Dose: 0, 0.08, 0.16 G/KG, Dose: 0, 0.08, 0.16 G/KG, Tumor Site: Type of Lesion: URINARY BLADDER: TRANSITIONAL CELL CARCINOMA) is “active; positive”.
Consider `CC1CN(N=O)CC(C)N1` (stereo not drawn), for which the carcinogen call (Species: RAT, Strain/Sex: F344/FEMALE, Route: ORAL, Dose: 0, 100 MG/L IN DRINKING WATER 5 D/WK FOR 29 WK, STUDY DURATION: 40-50 WK, Dose: 0, 100 MG/L IN DRINKING WATER 5 D/WK FOR 29 WK, STUDY DURATION: 40-50 WK, Tumor Site: Type of Lesion: THYMUS GLAND: LYMPHOMA OR LEUKEMIA, MULTIPLE SITES: LYMPHOMA OR LEUKEMIA) was “active; positive”.
For `c1ccc2c(c1)cc1ccc3cccc4c5ccccc5c2c1c34`, the carcinogen call was “active; positive” (Species: MOUSE, Route: DERMAL, Tumor Site: Type of Lesion: INTEGUMENTARY SYSTEM (SKIN)); “active; positive” (Species: MOUSE, Route: SUBCUTANEOUS, Tumor Site: Type of Lesion: INJECTION SITE); “active; positive” (Species: MOUSE, Strain/Sex: SWISS/FEMALE, Route: DERMAL, Dose: 0, 1, 4, 8 NMOL IN 100 µL ACETONE 2/WK FOR 40 WK (STUDY DURATION: 48 WK), Dose: 0, 1, 4, 8 NMOL IN 100 µL ACETONE 2/WK FOR 40 WK (STUDY DURATION: 48 WK), Tumor Site: Type of Lesion: SKIN: TUMORS); “active; positive” (Species: Mouse, Strain/Sex: B6129SF1/J v 129S1/SvImJ crosses, Route: Transplacental, Dose: 15 mg/kg bw in corn oil to dams on day 18 of gestation, study duration 10 months, Tumor Site: Type of Lesion: Lung and liver tumors); “active; positive (surviving offspring exhibited 100% incidence with multiplicity of appr” (Species: Mouse, Strain/Sex: B6129SF1x129S1/Svlmj/Male and female (215 in 4 groups), Route: In utero, nursing, or in utero and nursing, Dose: 15 mg/kg, gavage to pregnant B6129SF1 females, once on day 17 of pregnancy (Study duration 10 months from birth), Tumor Site: Type of Lesion: Lung); “active; positive” (Species: RAT, Strain/Sex: SPRAGUE-DAWLEY/FEMALE, Route: INJECTION, Dose: 0, 0.25, 1 UMOL PER MAMMARY GLAND (STUDY DURATION: 24 WK), Dose: 0, 0.25, 1 UMOL PER MAMMARY GLAND (STUDY DURATION: 24 WK), Tumor Site: Type of Lesion: MAMMARY GLAND: TUMOR).
Take `CCCCCCCCCCCCCC(=O)ON(C(C)=O)c1ccc2c(c1)Cc1ccccc1-2`: for the setting “Species: RAT, Strain/Sex: F344/MALE, Route: SUBCUTANEOUS, Dose: 10.6 UMOL IN 0.2 ML DMSO-TRIOCTANOIN 1/WK FOR 6 WK, Tumor Site: Type of Lesion: INJECTION SITE: FIBROSARCOMA OR FIBROMYOSARCOMA OR FIBROLIPOSARCOMA”, the carcinogen call is “active; positive”.
In the case of `CN(C)C(=O)Nc1cccc(C(F)(F)F)c1`, the carcinogen call (Species: MOUSE, Strain/Sex: B6C3F1/FEMALE, Route: ORAL, Dose: 0, 500, 1000 PPM IN DIET FOR 103 WK (STUDY DURATION: 103-105 WK), Dose: 0, 500, 1000 PPM IN DIET FOR 103 WK (STUDY DURATION: 103-105 WK)) is “inactive; negative”; the carcinogen call (Species: MOUSE, Strain/Sex: B6C3F1/FEMALE, Route: ORAL, Dose: 0, 500, 1000 PPM IN DIET FOR 103 WK (STUDY DURATION: 103-105 WK), Dose: 0, 500, 1000 PPM IN DIET FOR 103 WK (STUDY DURATION: 103-105 WK), Tumor Site: Type of Lesion: LIVER: HEPATOCELLULAR CARCINOMA OR ADENOMA) is “equivocal”; the carcinogen call (Species: Mouse, Strain/Sex: CR CD-1/Female (60/Group), Route: Oral, Dose: 0, 10, 500, 2000 ppm of 96.1% fluometuron in diet for 104 wk, study duration 104 wk, Dose: 0, 10, 500, 2000 ppm of 96.1% fluometuron in diet for 104 wk, study duration 104 wk, Tumor Site: Type of Lesion: Lymphocytic lymphoma (highest dose only)) was “active; positive”; the carcinogen call (Species: Mouse, Strain/Sex: CR CD-1/Male (60/Group), Route: Oral, Dose: 0, 10, 500, 2000 ppm of 96.1% fluometuron in diet for 104 wk, study duration 104 wk, Dose: 0, 10, 500, 2000 ppm of 96.1% fluometuron in diet for 104 wk, study duration 104 wk, Tumor Site: Type of Lesion: Lung: Primary pulmonary neoplasia) was “active; positive”; the carcinogen call (Species: RAT, Strain/Sex: F344/FEMALE, Route: ORAL, Dose: 0, 125, 250 PPM IN DIET FOR 103 WK (STUDY DURATION: 103-105 WK), Dose: 0, 125, 250 PPM IN DIET FOR 103 WK (STUDY DURATION: 103-105 WK)) is “inactive; negative”; the carcinogen call (Species: RAT, Strain/Sex: F344/MALE, Route: ORAL, Dose: 0, 125, 250 PPM IN DIET FOR 103 WK (STUDY DURATION: 103-105 WK), Dose: 0, 125, 250 PPM IN DIET FOR 103 WK (STUDY DURATION: 103-105 WK)) is “inactive; negative”. Besides, the carcinogen call reads like this: (Species: Rat, Strain/Sex: Fischer 344 CD-F/Female (60/Group), Route: Oral, Dose: 0, 10, 300, 1000 ppm of 96.1% fluometuron in diet for 2 yr, study duration 2 yr, Dose: 0, 10, 300, 1000 ppm of 96.1% fluometuron in diet for 2 yr, study duration 2 yr) “inactive; negative”; (Species: Rat, Strain/Sex: Fischer 344 CD-F/Male (60/Group), Route: Oral, Dose: 0, 10, 300, 1000 ppm of 96.1% fluometuron in diet for 2 yr, study duration 2 yr, Dose: 0, 10, 300, 1000 ppm of 96.1% fluometuron in diet for 2 yr, study duration 2 yr) “inactive; negative”.
Turning to `O=[As](O)(O)O`, the carcinogen call reads like this: (Species: MOUSE, Strain/Sex: SWISS/FEMALE, Route: INTRAVENOUS, Dose: 0, 0.5 MG/KG/WK FOR 20 WK (STUDY DURATION: 96 WK)) “inactive; negative”; (Species: MOUSE, Strain/Sex: SWISS/MALE, Route: INTRAVENOUS, Dose: 0, 0.5 MG/KG/WK FOR 20 WK (STUDY DURATION: 96 WK)) “inactive; negative”.
For the compound `O=CNNc1nc(-c2ccc([N+](=O)[O-])o2)cs1`, the carcinogen call runs as follows: (Species: HAMSTER, Route: ORAL, Tumor Site: Type of Lesion: FORESTOMACH, URINARY BLADDER) “active; positive”; (Species: MOUSE, Route: ORAL, Tumor Site: Type of Lesion: FORESTOMACH, HEMATOPOIETIC SYSTEM (LEUKEMIA), LUNG, STOMACH, Tumor Site: Type of Lesion: FORESTOMACH, HEMATOPOIETIC SYSTEM (LEUKEMIA), LUNG, STOMACH) “active; positive”; (Species: RAT, Route: ORAL, Tumor Site: Type of Lesion: HEMATOPOIETIC SYSTEM (LEUKEMIA), KIDNEY, LIVER, MAMMARY GLAND, Tumor Site: Type of Lesion: HEMATOPOIETIC SYSTEM (LEUKEMIA), KIDNEY, LIVER, MAMMARY GLAND) “active; positive”.
As for `O=[N+]([O-])c1ccc(NCCO)c(OCCO)c1`, the carcinogen call is, setting by setting: (Species: MOUSE, Strain/Sex: B6C3F1/FEMALE, Route: ORAL, Dose: 0, 5000, 10000 PPM IN FEED 7 D/WK FOR 104 WK (STUDY DURATION: 2 YR), Dose: 0, 5000, 10000 PPM IN FEED 7 D/WK FOR 104 WK (STUDY DURATION: 2 YR)) “inactive; negative”; (Species: MOUSE, Strain/Sex: B6C3F1/MALE, Route: ORAL, Dose: 0, 5000, 10000 PPM IN FEED 7 D/WK FOR 104 WK (STUDY DURATION: 2 YR), Dose: 0, 5000, 10000 PPM IN FEED 7 D/WK FOR 104 WK (STUDY DURATION: 2 YR)) “inactive; negative”; (Species: RAT, Strain/Sex: F344/FEMALE, Route: ORAL, Dose: 0, 5000, 10000 PPM IN FEED 7 D/WK FOR 104 WK (STUDY DURATION: 2 YR), Dose: 0, 5000, 10000 PPM IN FEED 7 D/WK FOR 104 WK (STUDY DURATION: 2 YR)) “inactive; negative”; (Species: RAT, Strain/Sex: F344/MALE, Route: ORAL, Dose: 0, 5000, 10000 PPM IN FEED 7 D/WK FOR 104 WK (STUDY DURATION: 105 WK), Dose: 0, 5000, 10000 PPM IN FEED 7 D/WK FOR 104 WK (STUDY DURATION: 105 WK), Tumor Site: Type of Lesion: PITUITARY GLAND (PARS DISTALIS): ADENOMA) “equivocal”.
